Source: ChEMBL document CHEMBL4406923, “New Potent DOT1L Inhibitors for in Vivo Evaluation in Mouse” (ACS Med Chem Lett, 2019)
Active and inactive are the calls of the source. The calls are words filed in the database; no cut-off is given here.

How the values were obtained:
[1] = target: T1, Histone-arginine methyltransferase CARM1 (Homo sapiens) (UniProt Q86X55); assay: Inhibition of CARM1 (unknown origin) at <5 uM using histone H3 peptide (1 to 21) as substrate in presence of co-factor SAM by LC-MS analysis
T1 sequence (whole entry): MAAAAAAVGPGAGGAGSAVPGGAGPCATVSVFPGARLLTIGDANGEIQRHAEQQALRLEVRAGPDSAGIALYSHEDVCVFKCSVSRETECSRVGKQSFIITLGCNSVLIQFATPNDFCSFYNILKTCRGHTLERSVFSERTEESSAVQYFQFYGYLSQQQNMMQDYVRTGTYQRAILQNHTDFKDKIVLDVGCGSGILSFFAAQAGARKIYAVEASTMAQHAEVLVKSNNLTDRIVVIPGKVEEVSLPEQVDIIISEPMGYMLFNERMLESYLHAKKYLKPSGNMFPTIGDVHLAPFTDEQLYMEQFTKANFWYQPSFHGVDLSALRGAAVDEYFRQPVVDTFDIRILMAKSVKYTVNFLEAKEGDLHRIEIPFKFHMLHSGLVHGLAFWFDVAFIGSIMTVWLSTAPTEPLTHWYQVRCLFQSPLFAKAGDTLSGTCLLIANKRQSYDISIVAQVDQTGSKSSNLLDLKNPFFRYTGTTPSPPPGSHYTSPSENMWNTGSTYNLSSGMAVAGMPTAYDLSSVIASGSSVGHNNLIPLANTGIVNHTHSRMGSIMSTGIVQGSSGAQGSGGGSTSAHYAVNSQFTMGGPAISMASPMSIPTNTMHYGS

Homo sapiens = species on record: Homo sapiens; assay: Inhibition of Ezh1 (Ezh1/EED/SUZ12/AEBP2/RbAP48) (unknown origin) at <5 uM using histone H3 peptide (21 to 44) as substrate in presence of co-factor SAM by LC-MS analysis
[2] = target: N-lysine methyltransferase SMYD2 (Homo sapiens) (UniProt Q9NRG4); assay: Inhibition of SmyD2 (unknown origin) at <5 uM using p53 (363 to 393 residues) as substrate in presence of co-factor SAM by LC-MS analysis
Chain of N-lysine methyltransferase SMYD2 (Homo sapiens) (Q9NRG4 whole entry, the tested form may be a part): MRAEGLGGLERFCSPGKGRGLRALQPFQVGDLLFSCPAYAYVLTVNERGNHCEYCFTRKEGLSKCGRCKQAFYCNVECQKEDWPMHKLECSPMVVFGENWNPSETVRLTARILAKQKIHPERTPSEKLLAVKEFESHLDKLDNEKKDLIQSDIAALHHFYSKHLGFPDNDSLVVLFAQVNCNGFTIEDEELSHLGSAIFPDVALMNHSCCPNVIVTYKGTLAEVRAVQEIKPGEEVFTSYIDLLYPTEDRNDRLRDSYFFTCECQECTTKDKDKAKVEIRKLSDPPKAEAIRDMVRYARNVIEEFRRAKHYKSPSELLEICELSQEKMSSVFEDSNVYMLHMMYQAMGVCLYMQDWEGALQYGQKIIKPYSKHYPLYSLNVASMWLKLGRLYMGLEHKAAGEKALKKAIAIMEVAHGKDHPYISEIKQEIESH

[3] = target: T2, Histone-lysine N-methyltransferase, H3 lysine-79 specific (Homo sapiens, UniProt Q8TEK3); assay: Inhibition of 0.05 nM DOT1L (2 to 416 residues) (unknown origin) using biotinylated nucleosome as substrate and [3H]SAM as co-factor preincubated for 30 mins followed by substrate and cofactor addition and measured after 180 mins by scintillation proximity assay
Target sequence in this assay (Q8TEK3 whole entry, the tested form may be a part): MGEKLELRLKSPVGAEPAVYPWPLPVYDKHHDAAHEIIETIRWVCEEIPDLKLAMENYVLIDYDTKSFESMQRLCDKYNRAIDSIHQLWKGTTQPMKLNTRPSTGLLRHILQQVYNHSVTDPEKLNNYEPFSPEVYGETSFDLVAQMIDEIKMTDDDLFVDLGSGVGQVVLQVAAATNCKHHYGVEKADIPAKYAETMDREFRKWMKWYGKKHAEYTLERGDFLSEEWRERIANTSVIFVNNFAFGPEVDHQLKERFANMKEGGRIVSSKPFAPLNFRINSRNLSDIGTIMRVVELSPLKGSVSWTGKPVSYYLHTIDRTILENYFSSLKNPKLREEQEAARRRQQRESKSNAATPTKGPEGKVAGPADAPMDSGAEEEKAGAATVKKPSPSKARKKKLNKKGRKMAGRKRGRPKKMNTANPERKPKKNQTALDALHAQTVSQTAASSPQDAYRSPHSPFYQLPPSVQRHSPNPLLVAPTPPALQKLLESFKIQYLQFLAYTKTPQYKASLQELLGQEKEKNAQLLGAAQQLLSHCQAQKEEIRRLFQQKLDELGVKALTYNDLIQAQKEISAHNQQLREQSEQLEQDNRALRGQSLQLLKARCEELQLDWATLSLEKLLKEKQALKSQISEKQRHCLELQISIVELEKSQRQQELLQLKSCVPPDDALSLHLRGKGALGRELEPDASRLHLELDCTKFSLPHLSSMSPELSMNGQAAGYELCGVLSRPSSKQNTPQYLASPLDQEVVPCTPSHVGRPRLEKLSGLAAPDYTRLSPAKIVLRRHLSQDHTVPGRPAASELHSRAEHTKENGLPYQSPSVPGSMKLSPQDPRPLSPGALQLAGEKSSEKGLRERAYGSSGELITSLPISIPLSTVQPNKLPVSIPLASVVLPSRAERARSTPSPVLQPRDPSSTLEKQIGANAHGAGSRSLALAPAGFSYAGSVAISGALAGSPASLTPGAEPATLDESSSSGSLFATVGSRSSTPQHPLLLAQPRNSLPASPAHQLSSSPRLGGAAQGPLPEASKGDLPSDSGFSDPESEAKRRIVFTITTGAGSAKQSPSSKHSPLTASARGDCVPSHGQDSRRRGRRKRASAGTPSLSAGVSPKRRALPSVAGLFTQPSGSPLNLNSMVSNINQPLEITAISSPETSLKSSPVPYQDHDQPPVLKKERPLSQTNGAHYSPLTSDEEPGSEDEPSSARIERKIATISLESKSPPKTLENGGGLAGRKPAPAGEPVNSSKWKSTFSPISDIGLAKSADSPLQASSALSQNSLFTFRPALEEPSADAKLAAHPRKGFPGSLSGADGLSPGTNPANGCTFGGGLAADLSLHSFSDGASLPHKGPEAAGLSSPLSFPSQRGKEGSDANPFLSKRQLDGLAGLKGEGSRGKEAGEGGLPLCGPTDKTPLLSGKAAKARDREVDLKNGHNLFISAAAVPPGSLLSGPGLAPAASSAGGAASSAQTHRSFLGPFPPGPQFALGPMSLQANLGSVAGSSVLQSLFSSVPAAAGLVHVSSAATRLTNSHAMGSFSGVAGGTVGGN

[4] = target: T3, Histone-lysine N-methyltransferase NSD3 (Homo sapiens) (UniProt Q9BZ95); assay: Inhibition of NSD3 (unknown origin) at <5 uM using histone H3 peptide (1 to 45) as substrate in presence of co-factor SAM by LC-MS analysis
T3 sequence (whole entry): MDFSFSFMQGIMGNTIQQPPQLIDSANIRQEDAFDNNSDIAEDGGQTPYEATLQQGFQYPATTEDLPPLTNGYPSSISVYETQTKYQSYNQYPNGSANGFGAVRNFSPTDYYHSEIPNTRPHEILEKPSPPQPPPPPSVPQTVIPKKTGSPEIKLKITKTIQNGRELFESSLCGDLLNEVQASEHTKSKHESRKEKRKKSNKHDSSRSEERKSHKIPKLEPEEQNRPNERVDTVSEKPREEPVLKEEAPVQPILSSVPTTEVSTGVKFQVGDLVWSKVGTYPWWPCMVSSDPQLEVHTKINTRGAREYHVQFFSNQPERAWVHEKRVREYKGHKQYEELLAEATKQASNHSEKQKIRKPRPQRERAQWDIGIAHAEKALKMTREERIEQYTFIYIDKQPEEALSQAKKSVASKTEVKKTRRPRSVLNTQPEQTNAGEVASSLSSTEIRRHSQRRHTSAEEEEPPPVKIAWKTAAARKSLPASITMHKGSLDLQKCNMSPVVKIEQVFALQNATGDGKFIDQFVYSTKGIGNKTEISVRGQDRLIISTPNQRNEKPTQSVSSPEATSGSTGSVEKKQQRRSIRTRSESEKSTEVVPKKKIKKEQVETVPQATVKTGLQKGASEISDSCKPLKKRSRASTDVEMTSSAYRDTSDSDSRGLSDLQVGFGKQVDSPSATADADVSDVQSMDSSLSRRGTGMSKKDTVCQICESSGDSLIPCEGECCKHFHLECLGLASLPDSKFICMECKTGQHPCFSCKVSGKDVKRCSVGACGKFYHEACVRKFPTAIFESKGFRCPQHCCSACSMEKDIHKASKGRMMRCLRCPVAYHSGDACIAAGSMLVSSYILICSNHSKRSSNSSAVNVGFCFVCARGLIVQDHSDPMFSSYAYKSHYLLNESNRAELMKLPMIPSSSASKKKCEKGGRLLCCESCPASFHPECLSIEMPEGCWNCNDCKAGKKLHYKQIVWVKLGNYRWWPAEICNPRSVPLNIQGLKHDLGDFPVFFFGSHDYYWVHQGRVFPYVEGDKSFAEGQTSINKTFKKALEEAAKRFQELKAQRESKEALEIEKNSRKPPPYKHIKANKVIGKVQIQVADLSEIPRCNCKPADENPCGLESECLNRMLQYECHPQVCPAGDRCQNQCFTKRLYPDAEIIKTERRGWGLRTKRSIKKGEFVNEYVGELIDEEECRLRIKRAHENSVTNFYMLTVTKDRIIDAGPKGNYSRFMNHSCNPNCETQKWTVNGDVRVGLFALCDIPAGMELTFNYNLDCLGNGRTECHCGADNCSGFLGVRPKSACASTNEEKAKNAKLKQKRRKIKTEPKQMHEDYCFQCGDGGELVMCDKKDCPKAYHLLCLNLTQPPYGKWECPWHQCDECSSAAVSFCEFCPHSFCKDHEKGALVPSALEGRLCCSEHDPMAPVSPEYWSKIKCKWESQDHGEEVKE

[5] = Toxicity in C57BL/6 mouse xenografted with human MV4-11 cells at 300 mg/kg, po; type: organism-based; conditions: in vivo
[6] = target: T2, Histone-lysine N-methyltransferase, H3 lysine-79 specific; assay: Binding affinity to DOT1l (unknown origin) assessed as dissociation half life by SPR assay
Target sequence in this assay (Q8TEK3 whole entry, looked up, the tested form may be a part): as the sequence (Q8TEK3 whole entry, the tested form may be a part) above

inhibition [1]: inactive | inhibition (Homo sapiens): inactive | inhibition [2]: inactive | IC50 [3]: 110 pM | inhibition [4]: inactive | T1/2 [6]: > 5 h
Structure (SMILES): COc1nc(Nc2cc(S(C)(=O)=O)ccc2N[C@@H](c2cccc3c2OC(F)(F)O3)c2ncccc2Cl)nc(N2CCNCC2)n1
Activity [5]: Toxic
